Measurements as given in patent publication US20260258064A1 (SIRONAX LTD., priority 2023, published 2026).

biological target: T1, SARM1 (50-724) (Homo sapiens, UniProt Q6SZW1); experiment: SARM1 (50-724) enzymatic assay (LC-MS/MS); format: biochemical; conditions: Purified SARM1 (50-724) 2 nM, NMN as activator, NAD+ as substrate, 1 h at room temperature, read-out: IC50 (SARM1 inhibitory activity)
T1 construct: Purified SARM1 (50-724) with a final concentration of 2 nM was pre-incubated with a test compound
T1 sequence (Q6SZW1 50-724): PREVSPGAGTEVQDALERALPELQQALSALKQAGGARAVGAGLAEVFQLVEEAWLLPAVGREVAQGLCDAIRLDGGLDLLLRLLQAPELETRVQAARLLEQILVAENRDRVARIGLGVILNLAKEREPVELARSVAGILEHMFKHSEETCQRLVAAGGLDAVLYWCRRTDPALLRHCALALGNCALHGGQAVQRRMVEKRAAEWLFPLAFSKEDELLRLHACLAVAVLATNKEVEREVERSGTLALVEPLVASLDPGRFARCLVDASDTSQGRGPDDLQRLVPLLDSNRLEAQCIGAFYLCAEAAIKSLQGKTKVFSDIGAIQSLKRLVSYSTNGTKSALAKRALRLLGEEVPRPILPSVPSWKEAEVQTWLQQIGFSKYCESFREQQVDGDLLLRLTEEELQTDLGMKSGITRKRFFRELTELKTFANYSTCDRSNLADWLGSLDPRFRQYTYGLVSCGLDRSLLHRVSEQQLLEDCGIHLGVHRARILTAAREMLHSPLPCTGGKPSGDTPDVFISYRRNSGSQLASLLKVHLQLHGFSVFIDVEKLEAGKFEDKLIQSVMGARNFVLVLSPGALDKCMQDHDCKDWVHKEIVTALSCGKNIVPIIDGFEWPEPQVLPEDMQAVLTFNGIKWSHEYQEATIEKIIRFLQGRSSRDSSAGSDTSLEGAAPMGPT
In short: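 Human SARM1 (50-724), 2 nM, pre-incubated 15 min at room temperature with compound in Dulbecco's PBS. Reaction started with 200 µM NMN (activator) plus […] NAD^+ substrate, run 1 h at room temperature, quenched with 70% acetonitrile. Turnover quantified by LC-MS/MS; IC50 reported.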

`[2H]c1cncc(-n2c([2H])nnc2-c2nc3c(F)c(C4([2H])CC4)ccc3[nH]2)c1C(F)(F)F` [Compound 372, 5-(cyclopropyl-1-d)-4-fluoro-2-(4-(4-(trifluoromethyl)pyridin-3-yl-5-d)-4H-1,2,4-triazol-3-yl-5-d)-1H-benzo[d]imidazole] and `[2H]c1nnc(-c2nc3c(F)c(C4([2H])CC4)cc(F)c3[nH]2)n1-c1cnccc1C(F)(F)F` [Compound 394, 5-(cyclopropyl-1-d)-4,7-difluoro-2-(4-(4-(trifluoromethyl)pyridin-3-yl)-4H-1,2,4-triazol-3-yl-5-d)-1H-benzo[d]imidazole] cannot be ordered by IC50: ≤ 100 nM for the first, ≤ 100 nM for the second.

`Fc1cc(C23COCC2C3)cc2nc(-c3nncn3-c3cnccc3C(F)(F)F)[nH]c12` (stereo not drawn) [Compound 374] and `CP(C)(=O)c1cc(F)c2[nH]c(-c3nncn3-c3cnccc3C(F)(F)F)nc2c1` [Compound 392, 5-dimethylphosphoryl-7-fluoro-2-[4-[4-(trifluoromethyl)-3-pyridyl]-1,2,4-triazol-3-yl]-1H-benzimidazole] cannot be ordered by IC50: ≤ 100 nM for the first, 100 to 500 nM for the second.

`FC(F)(F)c1ccc2[nH]c(-c3nncn3-c3cnccc3C(F)(F)F)c(C3CCNC3)c2c1` (stereo not drawn) [Compound 375, 3-(pyrrolidin-3-yl)-5-(trifluoromethyl)-2-(4-(4-(trifluoromethyl)pyridin-3-yl)-4H-1,2,4-triazol-3-yl)-1H-indole] and `CS(=O)(=O)Cc1c(-c2nncn2-c2cnccc2C(F)(F)F)[nH]c2ccc(C(F)(F)F)cc12` [Compound 385, 3-(methylsulfonylmethyl)-5-(trifluoromethyl)-2-[4-[4-(trifluoromethyl)-3-pyridyl]-1,2,4-triazol-3-yl]-1H-indole] cannot be ordered by IC50: 100 to 500 nM for the first, ≤ 100 nM for the second.

`FC(F)(F)c1ccc2[nH]c(-c3nncn3-c3cnccc3C(F)(F)F)c(-c3ccco3)c2c1` [Compound 376, 3-(2-furyl)-5-(trifluoromethyl)-2-[4-[4-(trifluoromethyl)-3-pyridyl]-1,2,4-triazol-3-yl]-1H-indole] and `FC(F)(F)c1ccc2[nH]c(-c3nncn3-c3cnccc3C(F)(F)F)c(-c3cccnc3)c2c1` [Compound 387, 3-(pyridin-3-yl)-5-(trifluoromethyl)-2-(4-(4-(trifluoromethyl)pyridin-3-yl)-4H-1,2,4-triazol-3-yl)-1H-indole] cannot be ordered by IC50: ≤ 100 nM for the first, ≤ 100 nM for the second.

`Cc1cc(-c2cnccc2C(F)(F)F)c(-c2nc3cc(C(F)(F)F)ccc3[nH]2)nn1` [Compound 377, 2-(6-Methyl-4-(4-(trifluoromethyl)pyridin-3-yl)pyridazin-3-yl)-5-(trifluoromethyl)-1H-benzo[d]imidazole] and `Cc1cc(C(F)(F)F)c(-n2cnnc2-c2nc3cc(C(F)(F)F)ccc3[nH]2)nn1` [Compound 391, 2-(4-(6-methyl-4-(trifluoromethyl)pyridazin-3-yl)-4H-1,2,4-triazol-3-yl)-5-(trifluoromethyl)-1H-benzo[d]imidazole] fall in the same range of IC50: 100 to 500 nM for the first, 100 to 500 nM for the second.

Compared with `FC(F)(F)c1ncc2[nH]c(-c3nncn3-c3cnccc3C(F)(F)F)cc2n1` [Compound 378, 2-(trifluoromethyl)-6-(4-(4-(trifluoromethyl)pyridin-3-yl)-4H-1,2,4-triazol-3-yl)-5H-pyrrolo[3,2-d]pyrimidine], `FC(F)(F)c1ccc2[nH]c(-c3nncn3-c3cnccc3C(F)(F)F)c(-c3ccccn3)c2c1` [Compound 390, 3-(pyridin-2-yl)-5-(trifluoromethyl)-2-(4-(4-(trifluoromethyl)pyridin-3-yl)-4H-1,2,4-triazol-3-yl)-1H-indole] is lower in IC50: > 1000 nM for the first, ≤ 100 nM for the second.

`CS(=O)(=O)Cc1nnc(-c2cc3cc(C(F)(F)F)ccc3[nH]2)n1-c1cnccc1C(F)(F)F` [Compound 380, 2-(5-((methylsulfonyl)methyl)-4-(4-(trifluoromethyl)pyridin-3-yl)-4H-1,2,4-triazol-3-yl)-5-(trifluoromethyl)-1H-indole] and `FC(F)(F)c1ccc2[nH]c(-c3nncn3-c3cnccc3C(F)(F)F)c(-c3ccncc3)c2c1` [Compound 386, 3-(4-pyridyl)-5-(trifluoromethyl)-2-[4-[4-(trifluoromethyl)-3-pyridyl]-1,2,4-triazol-3-yl]-1H-indole] cannot be ordered by IC50: ≤ 100 nM for the first, ≤ 100 nM for the second.

`Fc1cccc(-n2c(Cn3cccn3)nnc2-c2nc3cc(C(F)(F)F)ccc3[nH]2)c1Cl` [Compound 381, 2-(5-((1H-pyrazol-1-yl)methyl)-4-(2-chloro-3-fluorophenyl)-4H-1,2,4-triazol-3-yl)-5-(trifluoromethyl)-1H-benzo[d]imidazole] and `Fc1cccc(-n2c(Cn3ccnn3)nnc2-c2nc3cc(C(F)(F)F)ccc3[nH]2)c1Cl` [Compound 383, 2-(5-((1H-1,2,3-triazol-1-yl)methyl)-4-(2-chloro-3-fluorophenyl)-4H-1,2,4-triazol-3-yl)-5-(trifluoromethyl)-1H-benzo[d]imidazole] cannot be ordered by IC50: 100 to 500 nM for the first, ≤ 100 nM for the second.

`CON(C)Cc1nnc(-c2nc3cc(C(F)(F)F)ccc3[nH]2)n1-c1cccc(F)c1Cl` [Compound 382, N-((4-(2-chloro-3-fluorophenyl)-5-(5-(trifluoromethyl)-1H-benzo[d]imidazol-2-yl)-4H-1,2,4-triazol-3-yl)methyl)-N,O-dimethylhydroxylamine] and `CC(C)(O)Cc1nnc(-c2nc3cc(C(F)(F)F)ccc3[nH]2)n1-c1cccc(F)c1Cl` [Compound 388, 1-(4-(2-chloro-3-fluorophenyl)-5-(5-(trifluoromethyl)-1H-benzo[d]imidazol-2-yl)-4H-1,2,4-triazol-3-yl)-2-methylpropan-2-ol] cannot be ordered by IC50: ≤ 100 nM for the first, ≤ 100 nM for the second.

Compared with `O=C1CCCN1Cc1nnc(-c2nc3cc(C(F)(F)F)ccc3[nH]2)n1-c1cccc(F)c1Cl` [Compound 384, 1-((4-(2-chloro-3-fluorophenyl)-5-(5-(trifluoromethyl)-1H-benzo[d]imidazol-2-yl)-4H-1,2,4-triazol-3-yl)methyl)pyrrolidin-2-one], `Fc1cccc(-n2c(CN3CC4(CCO4)C3)nnc2-c2nc3cc(C(F)(F)F)ccc3[nH]2)c1Cl` [Compound 398, 6-((4-(2-chloro-3-fluorophenyl)-5-(6-(trifluoromethyl)-1H-benzo[d]imidazol-2-yl)-4H-1,2,4-triazol-3-yl)methyl)-1-oxa-6-azaspiro[3.3]heptane] is lower in IC50: 500 to 1000 nM for the first, ≤ 100 nM for the second.

Compared with `Cn1cc(-c2cnccc2C(F)(F)F)c(-c2nc3cc(C(F)(F)F)c(Cl)cc3[nH]2)cc1=O` [Compound 389, 4-(5-chloro-6-(trifluoromethyl)-1H-benzo[d]imidazol-2-yl)-1-methyl-4′-(trifluoromethyl)-[3,3′-bipyridin]-6(1H)-one], `Cn1cc(-c2cnccc2C(F)(F)F)c(-c2nc3c(Cl)c(Cl)ccc3[nH]2)cc1=O` [Compound 393, 4-(4,5-dichloro-1H-benzo[d]imidazol-2-yl)-1-methyl-4′-(trifluoromethyl)-[3,3′-bipyridin]-6(1H)-one] is higher in IC50: 100 to 500 nM for the first, 500 to 1000 nM for the second.

`Nc1nnc(-c2nc3cc(C(F)(F)F)ccc3[nH]2)n1-c1cccc(F)c1Cl` [Compound 396, 4-(2-chloro-3-fluorophenyl)-5-(5-(trifluoromethyl)-1H-benzo[d]imidazol-2-yl)-4H-1,2,4-triazol-3-amine] and `NC(=O)c1cc(-c2nc3cc(C(F)(F)F)ccc3[nH]2)n(-c2cccc(F)c2Cl)n1` [Compound 397, 1-(2-chloro-3-fluorophenyl)-5-(5-(trifluoromethyl)-1H-benzo[d]imidazol-2-yl)-1H-pyrazole-3-carboxamide] cannot be ordered by IC50: ≤ 100 nM for the first, ≤ 100 nM for the second.
